System: P12-Ichikawa
Assay: cell viability relative to DMSO control; higher = less cytotoxic
Details: 48 h
How it was run: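 Library compounds in DMSO were pin-dosed into 1536-well plates (5 μl) holding NOMO1 or SEM (500 cells/well) or P12-Ichikawa (1000 cells/well) leukemia cells, across an 11-point threefold series of 47 μM to 0.79 nM. Each cell line had been adapted for at least four passages in each medium. CellTiter-Glo One luminescence was read after 48 h at 37°C. Viability is the per-plate percentage relative to DMSO wells, with cell-free wells as background.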

[1] = HPLM + 10% dialyzed FBS, 0.000781 µM
[2] = HPLM + 10% dialyzed FBS, 0.00234 µM
[3] = HPLM + 10% dialyzed FBS, 0.00702 µM
[4] = HPLM + 10% dialyzed FBS, 0.0211 µM
[5] = HPLM + 10% dialyzed FBS, 0.0632 µM
[6] = HPLM + 10% dialyzed FBS, 0.19 µM
[7] = HPLM + 10% dialyzed FBS, 0.569 µM
[8] = HPLM + 10% dialyzed FBS, 1.71 µM
[9] = HPLM + 10% dialyzed FBS, 5.12 µM
[10] = HPLM + 10% dialyzed FBS, 15.4 µM
[11] = HPLM + 10% dialyzed FBS, 46.1 µM
[12] = RPMI 5 mM glucose + 10% FBS, 0.000781 µM
[13] = RPMI 5 mM glucose + 10% FBS, 0.00234 µM
[14] = RPMI 5 mM glucose + 10% FBS, 0.00702 µM
[15] = RPMI 5 mM glucose + 10% FBS, 0.0211 µM
[16] = RPMI 5 mM glucose + 10% FBS, 0.0632 µM
[17] = RPMI 5 mM glucose + 10% FBS, 0.19 µM
[18] = RPMI 5 mM glucose + 10% FBS, 0.569 µM
[19] = RPMI 5 mM glucose + 10% FBS, 1.71 µM
[20] = RPMI 5 mM glucose + 10% FBS, 5.12 µM
[21] = RPMI 5 mM glucose + 10% FBS, 15.4 µM
[22] = RPMI 5 mM glucose + 10% FBS, 46.1 µM
[23] = RPMI 5 mM glucose + 10% dialyzed FBS, 0.000781 µM
[24] = RPMI 5 mM glucose + 10% dialyzed FBS, 0.00234 µM
[25] = RPMI 5 mM glucose + 10% dialyzed FBS, 0.00702 µM
[26] = RPMI 5 mM glucose + 10% dialyzed FBS, 0.0211 µM
[27] = RPMI 5 mM glucose + 10% dialyzed FBS, 0.0632 µM
[28] = RPMI 5 mM glucose + 10% dialyzed FBS, 0.19 µM
[29] = RPMI 5 mM glucose + 10% dialyzed FBS, 0.569 µM
[30] = RPMI 5 mM glucose + 10% dialyzed FBS, 1.71 µM
[31] = RPMI 5 mM glucose + 10% dialyzed FBS, 5.12 µM
[32] = RPMI 5 mM glucose + 10% dialyzed FBS, 15.4 µM
[33] = RPMI 5 mM glucose + 10% dialyzed FBS, 46.1 µM

SMILES	cell viability [1]	cell viability [2]	cell viability [3]	cell viability [4]	cell viability [5]	cell viability [6]	cell viability [7]	cell viability [8]	cell viability [9]	cell viability [10]	cell viability [11]	cell viability [12]	cell viability [13]	cell viability [14]	cell viability [15]	cell viability [16]	cell viability [17]	cell viability [18]	cell viability [19]	cell viability [20]	cell viability [21]	cell viability [22]	cell viability [23]	cell viability [24]	cell viability [25]	cell viability [26]	cell viability [27]	cell viability [28]	cell viability [29]	cell viability [30]	cell viability [31]	cell viability [32]	cell viability [33]
c1ccc2c(-c3cnn4cc(-c5ccc(N6CCNCC6)cc5)cnc34)ccnc2c1	97.9%	103%	150%	144%	151%	141%	146%	126%	125%	121%	59.3%	88.7%	91.2%	161%	182%	191%	166%	142%	123%	111%	107%	2.89%	96%	96.6%	175%	169%	168%	164%	168%	138%	119%	120%	3.35%
CC1(C)CC(=O)c2c(C(F)(F)F)nn(-c3ccc(C(N)=O)c(NC4CCC(OC(=O)CN)CC4)c3)c2C1 (stereo not given)	107%	86.9%	96.8%	96.5%	102%	88.6%	62.2%	42.1%	36.4%	36.3%	37.9%	83.8%	93.7%	91.7%	95.4%	99.1%	66.3%	35.2%	33.2%	29.2%	28.8%	27.3%	92.9%	92.9%	93%	91.9%	89.6%	82.4%	41%	32.3%	33.3%	28.8%	28.5%
CN(C)C(=O)COC(=O)Cc1ccc(OC(=O)c2ccc(NC(=N)N)cc2)cc1	–	122%	126%	134%	129%	135%	134%	126%	107%	98.4%	70.5%	–	–	–	–	–	–	–	–	–	–	–	–	–	–	–	–	–	–	–	–	–	–
COc1ccc(-c2c(-c3ccc(O)cc3O)n[nH]c2C)cc1	108%	101%	117%	112%	114%	106%	112%	107%	105%	101%	78.1%	99.8%	105%	105%	100%	110%	106%	105%	112%	102%	95.6%	68.6%	101%	106%	110%	111%	107%	113%	113%	113%	105%	101%	89.5%
Cc1c(OCC(F)(F)F)ccnc1C[S+]([O-])c1nc2ccccc2[nH]1 (stereo not given)	99.9%	111%	109%	105%	108%	113%	113%	112%	118%	112%	107%	99%	100%	98.2%	94%	106%	115%	108%	112%	114%	101%	102%	102%	102%	102%	111%	104%	103%	110%	112%	108%	111%	96.2%
COc1ccc2cc(-c3[nH]c(-c4ccc([S+](C)[O-])cc4)nc3-c3ccncc3)ccc2c1 (stereo not given)	113%	114%	116%	105%	117%	119%	124%	120%	123%	112%	99.3%	105%	112%	118%	120%	130%	127%	128%	130%	142%	120%	80.7%	104%	113%	105%	118%	119%	117%	124%	128%	120%	122%	57.6%
Cn1cc(-c2ccncc2)c(-c2ccc(OCc3ccc4ccccc4n3)cc2)n1	120%	121%	122%	121%	126%	123%	115%	118%	109%	91.5%	75.5%	121%	127%	120%	132%	122%	121%	120%	120%	104%	65.8%	53.7%	–	–	–	–	–	–	–	–	–	–	–
CCOC(=O)c1ncn2c1CN(C)C(=O)c1cc(F)ccc1-2	120%	113%	113%	117%	107%	107%	111%	106%	72%	67.7%	62%	106%	113%	109%	114%	116%	126%	103%	106%	92.2%	71.7%	48.9%	112%	119%	107%	119%	123%	113%	116%	102%	84.8%	74.4%	46.7%

From the supplement of paper PMC11451515
